Columns and labels:
[1] = test system: HeLa; experiment: Antiproliferative activity against human HeLa cells assessed as reduction in cell viability after 24 hrs by CCK-8 assay; format: functional, cell-based
[2] = test system: MCF7; experiment: Antiproliferative activity against human MCF7 cells assessed as reduction in cell viability after 24 hrs by CCK-8 assay; format: functional, cell-based; settings: MCF7, 24 h
[3] = test system: MKN-45; experiment: Antiproliferative activity against human MKN-45 cells assessed as reduction in cell viability after 24 hrs by CCK-8 assay; format: functional, cell-based; settings: MKN-45, 24 h
[4] = test system: MGC-803; experiment: Antiproliferative activity against human MGC-803 cells assessed as reduction in cell viability after 24 hrs by CCK-8 assay; format: functional, cell-based; settings: MGC-803, 24 h
[5] = test system: HCT-116; experiment: Antiproliferative activity against human HCT-116 cells assessed as reduction in cell viability after 24 hrs by CCK-8 assay; format: functional, cell-based; settings: HCT-116, 24 h
[6] = test system: HepG2; experiment: Antiproliferative activity against human HepG2 cells assessed as reduction in cell viability after 24 hrs by CCK-8 assay; format: functional, cell-based; settings: HepG2, 24 h
[7] = Inhibition of bovine brain tubulin polymerization by spectrophotometric method; format: tissue-based, Bos taurus
[8] = target: Tubulin (Sus scrofa, UniProt P02554+P02550); experiment: Inhibition of pig brain tubulin polymerization by spectrophotometric method; format: tissue-based
[9] = Inhibition of Arylsulfatase (unknown origin) using potassium p-nitrophenyl sulfate as substrate incubated for 5 mins; design: species or system Homo sapiens

Structure (SMILES) | IC50 [1] [µM] | IC50 [2] [µM] | IC50 [3] [µM] | IC50 [4] [µM] | IC50 [5] [µM] | IC50 [6] [µM] | IC50 [7] [µM] | IC50 [8] [µM] | IC50 [9] [µM]
COc1cc(CCc2ccc(OC(F)F)c(OS(N)(=O)=O)c2)cc(OC)c1OC | 35.6 | 52.7 | 71.4 | 23.3 | 26.5 | 15.9 |  |  | 
COc1cc2c(cc1O)CC[C@@H]1[C@@H]2CC[C@]2(C)[C@@H](O)CC[C@@H]12 [2-METHOXYESTRADIOL] |  |  |  |  |  |  | 40 |  | 
CNS(=O)(=O)Oc1cc(/C=C\c2cc(OC)c(OC)c(OC)c2)ccc1OC | 0.0034 | 0.53 | 0.0073 | 0.0037 | 0.0113 | 0.0039 |  | 1.8 | > 100
COc1ccc(/C=C\c2cc(OC)c(OC)c(OC)c2)cc1O [COMBRETASTATIN A4] |  | 0.14 | 0.0081 | 0.006 | 0.0047 | 0.0029 |  |  | > 100
COc1cc(/C=C/c2ccc(OC(F)F)c(OS(N)(=O)=O)c2)cc(OC)c1OC | 8.42 | 13.8 | 13.8 | 9.24 | 12.8 | 5.54 |  |  | 
COc1cc(/C=C\c2ccc(OC(F)F)c(OS(N)(=O)=O)c2)cc(OC)c1OC | 7.82 | 0.29 | 12.5 | 9 | 9.11 | 4.81 |  | 72.6 | 4.64
CCOc1ccc(CCc2cc(OC)c(OC)c(OC)c2)cc1OS(N)(=O)=O | 2.93 | 14.8 | 7.67 | 3.59 | 10.2 | 3.65 |  |  | 
COc1cc(CCc2cccc(OS(N)(=O)=O)c2)cc(OC)c1OC | 27.1 | > 100 | 25.7 | 17.6 | 52.5 | 12 |  |  | 
CCOc1ccc(/C=C/c2cc(OC)c(OC)c(OC)c2)cc1OS(N)(=O)=O | 5.64 | 13.7 | 8.05 | 7.63 | 9.12 | 2.63 |  |  | 
COc1ccc(/C=C/c2cc(OC)c(OC)c(OC)c2)cc1NS(N)(=O)=O | 0.38 | 17.1 | 18.9 | 6.19 | 8.65 | 7.53 |  |  | 
COc1ccc(CCc2cc(OC)c(OC)c(OC)c2)cc1OS(N)(=O)=O | 9.04 | 5.91 | 11.9 | 3.61 | 2.63 | 1.06 |  | > 100 | > 100
COc1ccc(CCc2cc(OC)c(OC)c(OC)c2)cc1NS(N)(=O)=O | 2.93 | 20.1 | 73.9 | 8.21 | 30.6 | 8.1 |  |  | 
COc1ccc(/C=C\c2cc(OC)c(OC)c(OC)c2)cc1OS(=O)(=O)N(C)C | 14.3 | 11.1 | 8.95 | 7.14 | 0.37 | 9.96 |  | 12.5 | > 100
COc1ccc(/C=C/c2cc(OC)c(OC)c(OC)c2)cc1OS(N)(=O)=O | 4.5 | 5.44 | 10.5 | 2.98 | 1.57 | 0.87 |  | 55.7 | 12.9
C[C@]12CC[C@@H]3c4ccc(OS(N)(=O)=O)cc4CC[C@H]3[C@@H]1CCC2=O [EMATE] | 0.63 | 0.07 | 0.54 | 0.48 | 0.9 | 0.85 |  | 25.9 | 5.01
COc1cc(/C=C\c2cccc(OS(N)(=O)=O)c2)cc(OC)c1OC | 16.3 | 11.1 | 15.3 | 8.53 | 9.5 | 9.36 |  | > 100 | 0.47
COc1ccc(/C=C\c2cc(OC)c(OC)c(OC)c2)cc1NS(N)(=O)=O | 0.27 | 11.2 | 9.56 | 0.5 | 3.29 | 0.75 |  | 86.2 | > 100
COc1ccc(/C=C\c2cc(OC)c(OC)c(OC)c2)cc1OS(N)(=O)=O | 0.0061 | 0.11 | 0.0095 | 0.0047 | 0.005 | 0.0036 |  | 6.6 | 6.16
COc1cc(/C=C/c2cccc(OS(N)(=O)=O)c2)cc(OC)c1OC | 19 | 27.4 | 25 | 27 | 40.3 | 11.8 |  |  | 
CCOc1ccc(/C=C\c2cc(OC)c(OC)c(OC)c2)cc1OS(N)(=O)=O | 0.48 | 0.3 | 0.32 | 0.27 | 0.55 | 0.41 |  | 3.1 | 90.2

— ChEMBL document CHEMBL5120740, “Design, synthesis and biological evaluation of combretastatin A-4 sulfamate derivatives as potential anti-cancer agents” (RSC Med Chem, 2021)
